Biological target: T1, recombinant human sGC (rhsGCα1/rhsGCβ1) in intact Sf9 cells (Homo sapiens, UniProt Q02108+Q02153)
T1 construct: Thus, the complete hsGCα1 cDNA is under the control of the polyhedrin promotor (PHP); Thus, the complete hsGCβ1 cDNA is under the control of the polyhedrin promotor (PHP); expressed in transfected cells; host or cells: Sf9 insect cells coinfected with recombinant baculoviruses (pVL1393-derived)
T1 sequence (Q02108 1-690): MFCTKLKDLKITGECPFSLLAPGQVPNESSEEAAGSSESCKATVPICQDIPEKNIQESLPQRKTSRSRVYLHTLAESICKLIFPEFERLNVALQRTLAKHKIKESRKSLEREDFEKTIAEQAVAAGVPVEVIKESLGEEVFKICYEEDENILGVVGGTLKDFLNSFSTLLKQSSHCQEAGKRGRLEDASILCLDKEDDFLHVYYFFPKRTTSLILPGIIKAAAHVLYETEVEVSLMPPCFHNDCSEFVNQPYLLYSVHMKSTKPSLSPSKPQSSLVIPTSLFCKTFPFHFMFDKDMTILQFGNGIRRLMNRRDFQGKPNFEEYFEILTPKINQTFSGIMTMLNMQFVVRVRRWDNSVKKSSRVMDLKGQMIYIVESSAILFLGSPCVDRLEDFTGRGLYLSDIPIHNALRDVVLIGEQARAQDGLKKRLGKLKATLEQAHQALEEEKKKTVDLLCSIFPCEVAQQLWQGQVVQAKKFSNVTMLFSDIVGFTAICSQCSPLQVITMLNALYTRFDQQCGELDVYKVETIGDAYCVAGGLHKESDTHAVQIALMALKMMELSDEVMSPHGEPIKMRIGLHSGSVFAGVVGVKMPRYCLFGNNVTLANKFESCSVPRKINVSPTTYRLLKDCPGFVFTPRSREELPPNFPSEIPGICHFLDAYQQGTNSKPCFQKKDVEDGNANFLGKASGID
T1 sequence (Q02153 1-619): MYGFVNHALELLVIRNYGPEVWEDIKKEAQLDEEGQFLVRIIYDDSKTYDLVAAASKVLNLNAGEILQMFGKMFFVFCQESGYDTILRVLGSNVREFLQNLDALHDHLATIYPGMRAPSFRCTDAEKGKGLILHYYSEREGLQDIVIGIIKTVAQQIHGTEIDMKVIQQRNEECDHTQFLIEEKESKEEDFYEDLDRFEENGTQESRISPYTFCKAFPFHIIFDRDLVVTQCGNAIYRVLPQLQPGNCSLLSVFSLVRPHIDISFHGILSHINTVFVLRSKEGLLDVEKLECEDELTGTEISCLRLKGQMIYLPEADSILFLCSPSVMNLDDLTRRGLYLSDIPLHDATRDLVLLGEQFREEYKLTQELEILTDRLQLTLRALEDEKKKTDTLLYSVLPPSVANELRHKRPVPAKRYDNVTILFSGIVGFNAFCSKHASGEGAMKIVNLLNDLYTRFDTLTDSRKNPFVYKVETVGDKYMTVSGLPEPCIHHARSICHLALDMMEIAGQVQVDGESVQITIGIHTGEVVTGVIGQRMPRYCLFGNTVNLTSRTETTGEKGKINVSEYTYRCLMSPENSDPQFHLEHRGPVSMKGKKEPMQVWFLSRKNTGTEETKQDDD
Test: cGMP content (RIA) in intact Sf9 cells coexpressing rhsGCα1 and rhsGCβ1
Format: cell-based
Protocol: For the production of functional heterodimeric human sGC, rhsGCα1 and rhsGCβ1 were coexpressed in Sf9 cells with recombinant baculoviruses. For this, Sf9 monolayer cultures [2.5×10^6 cells/dish, Ø 90 mm; supplements see example 2] were coinfected with a M.O.I. (multiplicity of infection) of 2 pfu/cell of each recombinant baculovirus (hsGCα1 and hsGCβ1; both without GST-tag) and cultivated for 48 hours at 27° C. The basal as well as the NO-stimulated activity of the sGC in the cells was determined by measurement of the cGMP content in the cells in the presence of the phosphodiesterase inhibitor IBMX (3-isobutyl-1-methylxanthine).
For the determination of the cGMP content, the culture media was replaced by Krebs-Ringer-buffer (KRB; […]; 4.74 mM KCI; 2.54 mM CaCl2; 1.19 mM MgSO4; 1.19 mM KH2PO4; 25 mM NaHCO3; 10 mM HEPES; pH 7.4; 0.1% BSA) which, in addition, contained 1 mM IBMX. The cells were incubated for one hour at 27° C. Then the cells were washed with ice-cold KRP and harvested in 1 ml ice-cold ethanol (80%) with a cell scraper. The cells were homogenized by sonication [see Example 3] and centrifuged at 20,000×g for 20 minutes. The supernatant was dried in a speed-vac and the residue resuspended in 25 mM TEA, pH 7.8. The cGMP content was determined by means of RIA (Biotrend).

Structure (SMILES)	increase of cGMP content (10 μM YC-1 for 2 minutes) [fold]	increase of cGMP content (100 μM YC-1, compared with 10 μM YC-1)	cGMP levels compared to stimulation with SNP alone (YC-1 simultaneously with 100 μM SNP)	influence on basal cGMP levels (basal, without SNP)	effect on stimulation of rhsGC with SNP (simultaneous incubation with ODQ and SNP)
OCc1ccc(-c2nn(Cc3ccccc3)c3ccccc23)o1 [YC-1, 3-(5′-hydroxymethyl-2′-furyl)-1-benzylindazol]	3.4	the same effect	doubled		
O=c1onc2cnc3ccccc3n12 [ODQ, 1H-[1,2,4]oxadiazolo[4,3,-a]chinoxalin-1-on]				did not have an influence	inhibited

Reference: patent publication US6849438B1, “Isolated and purified human soluble guanylyl cyclase α1/β1 (hsgcα1/β1)” (Vasopharm Biotech GmbH, priority 1998, dated 2005)
